# Data from ChEMBL document CHEMBL4342407, “Thieno[2,3-d]pyrimidine as a promising scaffold in medicinal chemistry: Recent advances” (Bioorg Med Chem, 2019).
# How the values were obtained:
# [1] = test system: HeLa; assay: Antiproliferative activity against human HeLa after 24 hrs by MTT assay; assay type: functional, cell-based
# [2] = test system: MCF7; assay: Antiproliferative activity against human MCF7 after 24 hrs by MTT assay; assay type: functional, cell-based; conditions: MCF7, 24 h
# [3] = test system: HepG2; assay: Antiproliferative activity against human HepG2 cells by MTT assay; assay type: functional, cell-based
# [4] = test system: MCF7; assay: Antiproliferative activity against human MCF7 by MTT assay; assay type: functional, cell-based
# [5] = test system: HepG2; assay: Antiproliferative activity against human HepG2 at 50 ug/ml after 48 hrs by MTT assay; assay type: functional; conditions: HepG2, 48 h
# [6] = test system: ECa-109 cell line; assay: Antiproliferative activity against human EC109 at 50 ug/ml after 48 hrs by MTT assay; assay type: functional; conditions: ECa-109, 48 h
# [7] = test system: MGC-803; assay: Antiproliferative activity against human MGC803 at 50 ug/ml after 48 hrs by MTT assay; assay type: functional; conditions: MGC-803, 48 h
# [8] = test system: Rattus norvegicus; assay: Antiinflammatory activity in Sprague-Dawley rat assessed as protection against carrageenan-induced edema at 40 mg/kg, po pretreated for 1 hr followed by carrageenan challenge and measured after 3 hrs by mercury plethysmometer relative to control; assay type: functional
# [9] = Ulcerogenic activity in Wistar albino rat assessed as ulcer index at 250 mg/kg, ip pretreated for 1 hr followed by pylorus ligation and measured at 4 hrs post ligation; assay type: toxicity, organism-based; conditions: in vivo
# [10] = test system: Rattus norvegicus; assay: Anti-ulcer activity in Wistar albino rat assessed as reduction in pylorus ligation induced ulcer at 250 mg/kg, ip pretreated for 1 hr followed by pylorus ligation and measured at 4 hrs post ligation; assay type: functional
# [11] = test system: Rattus norvegicus; assay: Antiinflammatory activity in po dosed Wistar rat assessed as reduction in carrageenan-induced paw edema pretreated for 1 hr followed by carrageenan challenge and measured over 2 to 4 hrs post carrageenan challenge by plethysmography; assay type: functional
# [12] = test system: Mus musculus; assay: Antiinflammatory activity in Swiss mouse assessed as inhibition of TPA-induced ear edema at 1 mg/ear applied topically and measured 4 hrs post-TPA challenge relative to control; assay type: functional
# [13] = test system: Rattus norvegicus; assay: Antiinflammatory activity in Wistar rat assessed as inhibition of cotton pellet-induced granuloma at 75 mg/kg, po administered daily for 7 days and measured on day 8 relative to control; assay type: functional
# [14] = test system: Rattus norvegicus; assay: Antiinflammatory activity in Wistar rat model of Freund's adjuvant-induced arthritis assessed as inhibition of arthritis by measuring reduction in paw volume at 75 mg/kg, po administered once daily for 8 days starting from day 7 post Freund's adjuvant treatment and measured after 18 days by mercury plethysmography relative to control; assay type: functional
# [15] = test system: PC-3; assay: Antiproliferative activity against human PC3 after 24 hrs by MTT assay; assay type: functional, cell-based; conditions: PC-3, 24 h
# [16] = test system: HEp-2; assay: Antiproliferative activity against human Hep2 after 24 hrs by MTT assay; assay type: functional, cell-based; conditions: HEp-2, 24 h
# [17] = test system: HepG2; assay: Antiproliferative activity against human HepG2 after 24 hrs by MTT assay; assay type: functional, cell-based; conditions: HepG2, 24 h
# [18] = test system: Pseudomonas aeruginosa; assay: Antibacterial activity against Pseudomonas aeruginosa assessed as zone inhibition at 500 ug/ml by cup plate agar diffusion method; assay type: functional; conditions: read-out: IZ
# [19] = test system: Candida albicans; assay: […] activity against Candida albicans assessed as zone inhibition at 500 ug/ml by cup plate agar diffusion method; assay type: functional; conditions: for zone of inhibition at 500 µg/mL: read-out: IZ
# [20] = test system: Bacillus subtilis; assay: Antibacterial activity against Bacillus subtilis assessed as zone inhibition at 500 ug/ml by cup plate agar diffusion method; assay type: functional; conditions: read-out: IZ
# [21] = test system: Escherichia coli; assay: Antibacterial activity against Escherichia coli assessed as zone inhibition at 500 ug/ml by cup plate agar diffusion method; assay type: functional; conditions: read-out: IZ
# [22] = test system: Staphylococcus aureus; assay: Antibacterial activity against Staphylococcus aureus assessed as zone inhibition at 500 ug/ml by cup plate agar diffusion method; assay type: functional; conditions: read-out: IZ
molecule,measurement,setting,value
Nc1c(C(=O)Nc2ccccc2)sc2nc(N3CCOCC3)nc(-c3ccccc3)c12,IC50,[1],40.7 µM
same,IC50,[2],52.6 µM
FC(F)(F)c1nc(NCc2ccc(Cl)cc2)c2c3c(sc2n1)CCC3,IC50,[3],8.63 µM
same,IC50,[4],13.8 µM
CCc1cc2c(=O)n(NC(c3ccc([N+](=O)[O-])cc3)P(=O)(OC(C)C)OC(C)C)c(C)nc2s1 (stereo not given),inhibition at 50 µg/mL,[5],58.1%
same,inhibition at 50 µg/mL,[6],58.5%
same,inhibition at 50 µg/mL,[7],84.3%
CCOP(=O)(OCC)C(Nn1c(C)nc2sc(CC)cc2c1=O)c1ccc([N+](=O)[O-])cc1 (stereo not given),inhibition at 50 µg/mL,[5],61.1%
same,inhibition at 50 µg/mL,[6],54%
same,inhibition at 50 µg/mL,[7],59.8%
C[C@]12CC[C@H]3[C@@H](CC=C4CC(O)CC[C@@]43C)[C@@H]1CC[C@@H]2c1csc(N)c1C(=O)NN (stereo not given in full),Activity,[8],87%
same,UI,[9],0.62
same,inhibition in vivo at 250 mg/kg,[10],82.7%
CC(=O)O[C@H]1C(=O)[C@@]2(C)[C@H]([C@H](OC(=O)c3ccccc3)[C@]3(O)C[C@H](OC(=O)[C@H](O)[C@@H](NC(=O)c4ccccc4)c4ccccc4)C(C)=C1C3(C)C)[C@]1(OC(C)=O)CO[C@@H]1C[C@@H]2O [PACLITAXEL],IC50,[1],45.8 µM
same,IC50,[2],40.4 µM
Nc1c(C(=O)Nc2ccc(I)cc2)sc2nc(N3CCOCC3)nc(-c3ccccc3)c12,IC50,[1],60.8 µM
same,IC50,[2],42.8 µM
O=C(NN1C(S)=Nc2sc3c(c2C1c1ccccc1)CCCC3)c1ccccc1 (stereo not given),ED50,[11],62.7 mg/kg
same,inhibition (INH),[12],57.9%
same,inhibition in vivo at 75 mg/kg,[13],41.8%
same,inhibition in vivo at 75 mg/kg,[14],25.6%
Cc1c(C(=O)/C=C/c2cccs2)sc2nc(S)n(-c3ccccc3)c(=O)c12,IC50,[15],18.4 µM
same,IC50,[1],15.4 µM
same,IC50,[2],24 µM
same,IC50,[16],25.7 µM
same,IC50,[17],26.4 µM
C[C@]12CC[C@H]3[C@@H](CC=C4CC(O)CC[C@@]43C)[C@@H]1CC[C@@H]2c1csc(N)c1-c1nnc(S)n1-c1ccccc1 (stereo not given in full),Activity,[8],96%
same,UI,[9],1.29
same,inhibition in vivo at 250 mg/kg,[10],64.2%
FC(F)(F)Oc1ccc(C2=Nc3ccccc3SC(c3cc4cncnc4s3)C2)cc1 (stereo not given),zone of inhibition at 500 µg/mL,[18],13.2 mm
same,zone of inhibition at 500 µg/mL,[19],10.6 mm
same,zone of inhibition at 500 µg/mL,[20],15.3 mm
same,zone of inhibition at 500 µg/mL,[21],12.3 mm
same,zone of inhibition at 500 µg/mL,[22],15.1 mm
CC1(C)S[C@@H]2[C@H](NC(=O)[C@H](N)c3ccccc3)C(=O)N2[C@H]1C(=O)O [AMPICILLIN],zone of inhibition at 500 µg/mL,[18],21 mm
same,zone of inhibition at 500 µg/mL,[20],24 mm
same,zone of inhibition at 500 µg/mL,[21],25 mm
same,zone of inhibition at 500 µg/mL,[22],22 mm
COc1ccccc1CNc1nc(C(F)(F)F)nc2sc3c(c12)CCC3,IC50,[3],> 100 µM
same,IC50,[4],> 100 µM
COc1cccc2c1C(=O)c1c(O)c3c(c(O)c1C2=O)C[C@@](O)(C(=O)CO)C[C@@H]3O[C@H]1C[C@H](N)[C@H](O)[C@H](C)O1 [DOXORUBICIN],IC50,[16],6.32 µM
NYSTATIN,inhibition zone (IZ),[19],20.8 mm
COc1ccc(NC(=O)c2sc3nc(N4CCOCC4)nc(-c4ccccc4)c3c2N)cc1,IC50,[1],61.9 µM
same,IC50,[2],27.8 µM
c1csc(C2=Nc3ccccc3SC(c3cc4cncnc4s3)C2)c1 (stereo not given),zone of inhibition at 500 µg/mL,[18],19.4 mm
same,zone of inhibition at 500 µg/mL,[19],19.6 mm
same,zone of inhibition at 500 µg/mL,[20],19.4 mm
same,zone of inhibition at 500 µg/mL,[21],19.4 mm
same,zone of inhibition at 500 µg/mL,[22],19.2 mm
CCc1cc2c(=O)n(/N=C/c3ccccc3)c(C)nc2s1,inhibition at 50 µg/mL,[5],57%
same,inhibition at 50 µg/mL,[6],51.4%
same,inhibition at 50 µg/mL,[7],74.6%
C[C@]12CC[C@H]3[C@@H](CC=C4CC(O)CC[C@@]43C)[C@@H]1CC[C@@H]2c1csc(N)c1C(=O)NNC(=S)Nc1ccccc1 (stereo not given in full),Activity,[8],81%
same,UI,[9],2.11
same,inhibition in vivo at 250 mg/kg,[10],41.4%
